Reference: patent US20040180322A1, “Regional intestinal permeability model” (priority 2000, published 2004)
Where a SMILES comes first, the peptide text is derived from it. [ ]: non-standard residue; d: D form. Sar = CNCC(=O)O

Tests used:
Caco-2 [1] = test: Caco-2 transepithelial transport at different apical pH, buffers and CO2 incubation (Experiment Two); format: in vitro ADME; settings: for increase of A to B Effective Permeability (Peff) on change of apical pH from 7.4 to 6.5 / decrease of A to B Effective Permeability (Peff) on change of apical pH from 7.4 to 6.5: Caco-2, apical pH 6.5 vs 7.4; for decrease of A to B Peff in the absence of CO2: Caco-2, pH 7.4 Ringers without CO2, pH shifted to 7.8-8.0
Description: (§1) Methods. In vitro permeability of various transport marker compounds was investigated using different apical pH's (pH 7.4 and pH 6.5), different buffers (Ringers, Mes, and Hepes), and different incubation (with or without CO2) conditions. Caco-2 transepithelial transport studies were performed using a standardized 24-well transwell format (20-24 day culture/passage 30-40). The apical (A, 0.3 mL volume) and basolateral (B, 1.2 mL volume) reservoirs were filled with Ringer's buffer (pH 7.4, 290 mOsm/kg), containing 25 mM glucose. A→B and B→A permeability was studied at 37° C., 50 opm, 95% humidity, and 5% CO2 using a 100 μM donor concentration with 1% DMSO. Monolayer integrity was evaluated by transepithelial electrical resistance (TEER) measurements.

Caco-2 [2] = test: Caco-2 transepithelial transport with apical FaSSIF versus Mes (Experiment Three); format: in vitro ADME; settings: for increase of A→B permeability with apical FaSSIF / increase of B→A permeability with apical FaSSIF: Caco-2, apical FaSSIF pH 6.5 compared with Mes pH 6.5
Description: Methods. […] Caco-2 transepithelial transport studies were performed using a standardized 24-well transwell format (20-24 day culture/passage 30-40). The transport experiments were performed using 0.3 mL apical solution either Ringers (pH 7.4), Mes (pH 6.5), or FaSSIF (pH 6.5, calcium free) and 1.2 mL basolateral solution (Ringer's buffer: pH 7.4, 290 mOsm/kg, 25 mM glucose). […] and B→A permeability was studied at 37° C., 50 opm, 95% humidity, and 5% CO2 using a 100 μM donor concentration with 1% DMSO. Monolayer integrity was evaluated by TEER measurements. Rabbit regional intestinal permeability studies were conducted using the Ussing side-by-side diffusion chamber, with volumes of 1.5 mL on each side. Intestinal segments (duodenum/jejunum/ileum/descending colon) were harvested from male New Zealand white rabbits (2.5-3.0 kg), stripped of the muscle layers and mounted in the chambers.

Caco-2 [3] = settings: cited from earlier work; for range of in vitro permeability values in inter-laboratory Caco-2: values from 10 references with various culture and transport conditions
[4] = Caco-2 monolayer A to B permeability of marker compounds, standardized conditions (Experiment One); settings: human, Caco-2, pH 7.4
Caco-2 [5] = test: Inter-laboratory Caco-2 permeability values of marker compounds collected from references; format: in vitro ADME; settings: for variability of in vitro permeability values in inter-laboratory Caco-2: values from 10 references with various culture and transport conditions
[6] = Caco-2 transepithelial transport at different apical pH, buffers and CO2 incubation (Experiment Two); format: in vitro ADME; settings: human
Description: as §1

In the case of `CC(C)Cc1ccc(C(C)C(=O)O)cc1` (stereo not drawn) [ibuprofen], the “increase of A to B Effective Permeability (Peff) on change of apical pH from 7.4 to 6.5” value (Caco-2 [1]) is reported as 3 ×.
With `NC(=O)c1ncn([C@@H]2O[C@H](CO)[C@@H](O)[C@H]2O)n1` [ribavirin] the “increase of A→B permeability with apical FaSSIF” value (from here on “increase of A→B permeability”) (Caco-2 [2]) was 5 fold.
For `OC[C@@H](O)[C@@H](O)[C@H](O)[C@H](O)CO` [mannitol], the “increase of A→B permeability” value (Caco-2 [2]) is given as 3 fold, the “increase of B→A permeability with apical FaSSIF” value (Caco-2 [2]) is given as 11 fold and the “range of in vitro Apparent Permeability (Papp) values from published references” value (Caco-2 [3]; published references) is given as 0.019-6.55 ×10^−6 cm/s. For the same molecule, the “range of in vitro permeability values in inter-laboratory Caco-2” value (Caco-2 [3]) was 0.38-3.23 ×10^−6 cm/s, the Papp A→B at 90 min, 100 μM [4] was 0.461 ×10⁻⁶ cm/s and the “variability of in vitro Apparent Permeability (Papp) values from published references” value (Caco-2 [5]; published references) was 345 fold. The “variability of in vitro permeability values in inter-laboratory Caco-2” value (Caco-2 [5]) was 9 fold.
For `CC[C@]1(O)C[C@@H]2CN(CCc3c([nH]c4ccccc34)[C@@](C(=O)OC)(c3cc4c(cc3OC)N(C)[C@H]3[C@@](O)(C(=O)OC)[C@H](OC(C)=O)[C@]5(CC)C=CCN6CC[C@]43[C@@H]65)C2)C1` [vinblastine], the efflux ratio at 90 min, 100 μM ([6]; Caco-2, apical pH 6.5) was 32, the efflux ratio at 90 min, 100 μM ([6]; Caco-2, apical pH 7.4) was 4 and the “decrease of A to B Effective Permeability (Peff) on change of apical pH from 7.4 to 6.5” value (Caco-2 [1]) was 5 ×.
In the case of `CC(C)NCC(O)COc1cccc2ccccc12` (stereo not drawn) [propranolol], the efflux ratio at 90 min, 100 μM ([6]; Caco-2, apical pH 6.5) is listed as over 4, the “decrease of A to B Effective Permeability (Peff) on change of apical pH from 7.4 to 6.5” value (Caco-2 [1]) is listed as 3 × and the “range of in vitro permeability values in inter-laboratory Caco-2” value (Caco-2 [3]) is listed as 14.8-110 ×10^−6 cm/s. For the same molecule, the Papp A→B at 90 min, 100 μM [4] was 28.7 ×10⁻⁶ cm/s and the “variability of in vitro permeability values in inter-laboratory Caco-2” value (Caco-2 [5]) was 7 fold.
For `COc1cc([C@@H]2c3cc4c(cc3[C@@H](O[C@@H]3O[C@@H]5CO[C@@H](C)O[C@H]5[C@H](O)[C@H]3O)[C@H]3COC(=O)[C@H]23)OCO4)cc(OC)c1O` [etoposide], the efflux ratio at 90 min, 100 μM ([6]; Caco-2, apical pH 6.5) was 12, the efflux ratio at 90 min, 100 μM ([6]; Caco-2, apical pH 7.4) was 8 and the “increase of A→B permeability” value (Caco-2 [2]) was 2 fold.
In the case of Polyethylene Glycol [PEG 4000], the “increase of A→B permeability” value (Caco-2 [2]) is reported as 2 fold and the “increase of B→A permeability with apical FaSSIF” value (Caco-2 [2]) is reported as 2 fold.
With `Nc1nc2c(ncn2COCCO)c(=O)[nH]1` [acyclovir] the “increase of A→B permeability” value (Caco-2 [2]) was 3 fold.
In the case of `CC(C(=O)O)c1cccc(C(=O)c2ccccc2)c1` (stereo not drawn) [ketoprofen], the “decrease of A to B Peff in the absence of CO2” value (Caco-2 [1]) is reported as 2 ×.
For `CN(CC(=O)O)C(=O)CN` [glycylsarcosine] (H-Gly-[Sar]-OH), the “increase of A to B Effective Permeability (Peff) on change of apical pH from 7.4 to 6.5” value (Caco-2 [1]) was 6 ×, the “decrease of A to B Peff in the absence of CO2” value (Caco-2 [1]) was 2 × and the “decrease of A→B permeability with apical FaSSIF” value (Caco-2 [2]; Caco-2, FaSSIF in apical compartment) was 2 fold.
